*1 amine or outer side, *2 acyl side, *3 side chain or, on linkers, in order; H or OH if unused. Where a SMILES comes first, the peptide text is derived from it. [ ]: non-standard residue; d: D form. The star is where a group is joined. PEG11 = NCCOCCOCCOCCOCCOCCOCCOCCOCCOCCOCCOCCC(=O)O; X9 = NC(=O)CC[C@H](N*)C(=O)CCCCCCCCCCCCCCCCCC(=O)O; X8 = NC(=O)CC[C@H](N*)C(=O)CCCCCCCCCCCCCCCC(=O)O; X7 = CCCCCCCCCCCCCCCC(=O)[C@H](CCC(N)=O)N*; β2hAla(2S) = C[C@@H](CN[*:1])C(=O)[*:2]; X4 = CCCC[C@H](O[*:1])C(=O)[*:2]; hLys = NCCCCC[C@H](N)C(=O)O; Nle = CCCC[C@H](N)C(=O)O
Experiments:
Relaxin receptor 1 [1] = target: T1, Relaxin receptor 1 (Homo sapiens, UniProt Q9HBX9); assay: Agonist activity at RXFP1 endogenously expressed in human OVCAR-5 cells assessed as increase in IBMX-induced cAMP accumulation pretreated with IBMX for 40 mins followed by compound addition and measured after 30 mins by HTRF assay; format: functional, cell-based
T1 sequence (Q9HBX9 whole entry): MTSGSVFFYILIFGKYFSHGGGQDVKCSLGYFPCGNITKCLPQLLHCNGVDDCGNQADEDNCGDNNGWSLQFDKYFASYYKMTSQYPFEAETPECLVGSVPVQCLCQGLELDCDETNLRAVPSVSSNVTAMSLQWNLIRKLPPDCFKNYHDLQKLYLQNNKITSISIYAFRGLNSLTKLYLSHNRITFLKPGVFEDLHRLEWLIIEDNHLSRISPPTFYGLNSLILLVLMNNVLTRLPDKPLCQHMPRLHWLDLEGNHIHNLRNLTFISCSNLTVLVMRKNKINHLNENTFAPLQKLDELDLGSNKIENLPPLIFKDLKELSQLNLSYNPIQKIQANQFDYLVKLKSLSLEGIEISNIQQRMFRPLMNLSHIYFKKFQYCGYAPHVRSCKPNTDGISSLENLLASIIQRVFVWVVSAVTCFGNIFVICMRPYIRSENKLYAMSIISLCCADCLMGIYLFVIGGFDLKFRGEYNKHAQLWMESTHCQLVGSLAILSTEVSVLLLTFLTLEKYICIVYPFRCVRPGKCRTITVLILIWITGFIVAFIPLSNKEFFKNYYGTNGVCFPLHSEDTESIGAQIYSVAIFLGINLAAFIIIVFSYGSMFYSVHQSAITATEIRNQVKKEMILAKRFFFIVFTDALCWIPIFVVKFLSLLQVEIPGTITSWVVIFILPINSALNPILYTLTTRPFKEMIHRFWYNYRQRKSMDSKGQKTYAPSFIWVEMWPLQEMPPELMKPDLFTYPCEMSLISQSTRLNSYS

[2] = target: T2, Relaxin receptor 1 (Homo sapiens) (UniProt Q9HBX9); assay: Agonist activity at RXFP1 endogenously expressed in human OVCAR-5 cells assessed as increase in IBMX-induced cAMP accumulation pretreated with IBMX for 40 mins followed by compound addition and measured after 30 mins by HTRF assay relative to relaxin; format: functional, cell-based; settings: filed as agonist
T2 sequence (whole entry): T1 sequence (Q9HBX9 whole entry)

[3] = Stability in rat plasma assessed as parent compound remaining level at 5 uM remaining after 4 hrs; format: ADME, cell-free; settings: read-out: Stabilty
[4] = Stability in human plasma assessed as parent compound remaining level at 5 uM remaining after 4 hrs; format: ADME, cell-free; settings: read-out: Stabilty
Relaxin receptor 1 [5] = target: T1, Relaxin receptor 1; assay: Agonist activity at RXFP1 endogenously expressed in human OVCAR-5 cells assessed as increase in IBMX-induced cAMP accumulation pretreated with IBMX for 40 mins followed by compound addition and measured after 30 mins in presence of 2 % HSA by HTRF assay; format: functional, cell-based
[6] = Aqueous solubility of compound in acetate buffer at pH 4.5 measured after 24 hrs by UPLC analysis; format: physicochemical
[7] = Aqueous solubility of compound in phosphate buffer at pH 7.4 measured after 24 hrs by UPLC analysis; format: physicochemical
[8] = Half life in Sprague-Dawley rat at 1 mg/kg, iv measured upto 72 hrs by LC-HRMS analysis; format: ADME, organism-based; settings: in vivo

| Compound | EC50 (Relaxin receptor 1 [1]) | Emax [2] | remaining at 4 h, 5 µM [3] | remaining at 4 h, 5 µM [4] | EC50 (Relaxin receptor 1 [5]) | solubility at 24 h [6] | solubility at 24 h [7] | half-life [8] |
| --- | --- | --- | --- | --- | --- | --- | --- | --- |
| CC[C@H](C)[C@H](NC(=O)[C@H](CCC(N)=O)NC(=O)[C@H](C)NC(=O)[C@H](CCCNC(=N)N)NC(=O)[C@@H](NC(=O)[C@H](CCCCN)NC(=O)[C@H](CCC(=O)O)NC(=O)[C@H](CCCNC(=N)N)NC(=O)CNC(=O)[C@H](CCC(=O)O)NC(=O)[C@H](CC(C)C)NC(C)=O)C(C)C)C(=O)NC[C@H](C)C(=O)NC[C@H](C)C(=O)N[C@@H](CCC(=O)O)C(=O)NCC(=O)N[C@@H](CCSC)C(=O)N[C@@H](CO)C(=O)N[C@@H](CCCCN)C(=O)N[C@@H](Cc1c[nH]c2ccccc12)C(=O)N[C@@H](CO)C(=O)N[C@@H](CCCCN)C(=O)N[C@@H](CCCNC(=N)N)C(=O)N[C@@H](CCCCN)C(=O)N[C@@H](CCCCN)C(N)=O (HELM PEPTIDE1{[ac].L.E.G.R.E.K.V.R.A.Q.I.[C[C@@H](CN[*:1])C(=O)[*:2]].[C[C@@H](CN[*:1])C(=O)[*:2]].E.G.M.S.K.W.S.K.R.K.K.[am]}$$$$V2.0) | 0.014 µM | 99% | 24% | 79% | – | – | – | – |
| CCCC[C@H](NC(=O)[C@H](CCSC)NC(=O)CNC(=O)[C@H](CCC(=O)O)NC(=O)[C@@H](C)CNC(=O)[C@@H](C)CNC(=O)[C@@H](NC(=O)[C@H](CCCCCNC(C)=O)NC(=O)[C@H](CCCCN)NC(=O)[C@H](C)NC(=O)[C@H](CCCNC(=N)N)NC(=O)[C@@H](NC(=O)[C@H](CCCCN)NC(=O)[C@H](CCC(=O)O)NC(=O)[C@H](CCCNC(=N)N)NC(=O)[C@H](CCC(=O)O)NC(=O)CNC(=O)[C@H](CCC(=O)O)NC(=O)[C@H](CC(C)C)NC(C)=O)C(C)C)[C@@H](C)CC)C(=O)N[C@@H](CCCCN)C(=O)N[C@@H](CCCCCNC(C)=O)C(=O)N[C@@H](CO)C(=O)N[C@H](C(=O)N[C@@H](Cc1c[nH]c2ccccc12)C(=O)N[C@@H](CO)C(=O)NC[C@H](C)C(=O)N[C@@H](CCCNC(=N)N)C(=O)N[C@@H](CCCCN)C(=O)N[C@@H](CCCCN)C(=O)N[C@@H](CCCCCNC(C)=O)C(=O)N[C@@H](CCCCN)C(=O)N[C@@H](CCC(=O)O)C(=O)N[C@@H](CCC(=O)O)C(=O)N[C@@H](CCC(N)=O)C(=O)CCCCCCCCCCCCCCCCCC(=O)O)[C@@H](C)O (Ac-LEGEREKVRAK[hLys](Ac)I[β2hAla(2S)][β2hAla(2S)]EGM[Nle]K[hLys](Ac)STWS[β2hAla(2S)]RKK[hLys](Ac)KEE-X9) | 0.368 µM | 75% | – | – | > 2 µM | – | – | – |
| CCCC[C@H](NC(=O)[C@H](CCSC)NC(=O)CNC(=O)[C@H](CCC(=O)O)NC(=O)[C@@H](C)CNC(=O)[C@@H](C)CNC(=O)[C@@H](NC(=O)[C@H](CCCCCNC(C)=O)NC(=O)[C@H](CCCCN)NC(=O)[C@H](C)NC(=O)[C@H](CCCNC(=N)N)NC(=O)[C@@H](NC(=O)[C@H](CCCCN)NC(=O)[C@H](CCC(=O)O)NC(=O)[C@H](CCCNC(=N)N)NC(=O)[C@H](CCC(=O)O)NC(=O)CNC(=O)[C@H](CCC(=O)O)NC(=O)[C@H](CC(C)C)NC(C)=O)C(C)C)[C@@H](C)CC)C(=O)N[C@@H](CCCCN)C(=O)N[C@@H](CCCCCNC(C)=O)C(=O)N[C@@H](CO)C(=O)N[C@H](C(=O)N[C@@H](Cc1c[nH]c2ccccc12)C(=O)N[C@@H](CO)C(=O)NC[C@H](C)C(=O)N[C@@H](CCCNC(=N)N)C(=O)N[C@@H](CCCCN)C(=O)N[C@@H](CCCCN)C(=O)N[C@@H](CCCCCNC(C)=O)C(=O)N[C@@H](CCCCN)C(=O)N[C@@H](CCC(=O)O)C(=O)N[C@@H](CCC(=O)O)C(=O)N[C@@H](CCC(N)=O)C(=O)CCCCCCCCCCCCCCCC(=O)O)[C@@H](C)O (Ac-LEGEREKVRAK[hLys](Ac)I[β2hAla(2S)][β2hAla(2S)]EGM[Nle]K[hLys](Ac)STWS[β2hAla(2S)]RKK[hLys](Ac)KEE-X8) | 0.809 µM | 70% | – | – | > 2 µM | – | – | – |
| H-VIKLSGRELVRAQIAISGMSTWSKRSL-NH2 | – | – | 2% | 3% | – | 1.9 mg/mL | 0.014 mg/mL | – |
| CCCCCCCCCCCCCCCC(=O)[C@H](CCC(N)=O)NC(=O)[C@H](CCC(=O)O)NC(=O)[C@H](CCC(=O)O)NC(=O)[C@H](CCCCN)NC(=O)CCOCCOCCOCCOCCOCCOCCOCCOCCOCCOCCOCCNC(=O)[C@H](CCCCN)NC(=O)[C@H](CCCNC(=N)N)NC(=O)[C@@H](C)CNC(=O)[C@H](CO)NC(=O)[C@H](Cc1c[nH]c2ccccc12)NC(=O)[C@@H](NC(=O)[C@H](CO)NC(=O)[C@H](CCCC)NC(=O)[C@H](CCSC)NC(=O)CNC(=O)[C@H](CCC(=O)O)NC(=O)[C@@H](C)CNC(=O)[C@@H](C)CNC(=O)[C@@H](NC(=O)[C@H](CCC(N)=O)NC(=O)[C@H](C)NC(=O)[C@H](CCCNC(=N)N)NC(=O)[C@@H](NC(=O)[C@H](CCCCN)NC(=O)[C@H](CCC(=O)O)NC(=O)[C@H](CCCNC(=N)N)NC(=O)[C@H](CCC(=O)O)NC(=O)CNC(=O)[C@H](CCC(=O)O)NC(=O)[C@H](CC(C)C)NC(C)=O)C(C)C)[C@@H](C)CC)[C@@H](C)O (Ac-LEGEREKVRAQI[β2hAla(2S)][β2hAla(2S)]EGM[Nle]STWS[β2hAla(2S)]RK[PEG11]KEE-X7) | 0.0032 µM | 74% | – | – | – | – | – | 6.4 h |
| CC[C@H](C)[C@H](NC(=O)[C@H](CCC(N)=O)NC(=O)[C@H](C)NC(=O)[C@H](CCCNC(=N)N)NC(=O)[C@@H](NC(=O)[C@H](CC(C)C)NC(=O)[C@H](CCC(=O)O)NC(=O)[C@H](CCCNC(=N)N)NC(=O)CNC(=O)[C@H](CO)NC(=O)[C@H](CC(C)C)NC(=O)[C@H](CCCCN)NC(=O)[C@@H](NC(=O)[C@@H](NC(C)=O)C(C)C)[C@@H](C)CC)C(C)C)C(=O)NC[C@H](C)C(=O)NC[C@H](C)C(=O)N[C@@H](CO)C(=O)NCC(=O)N[C@@H](CCSC)C(=O)N[C@@H](CO)C(=O)N[C@H](C(=O)N[C@@H](Cc1c[nH]c2ccccc12)C(=O)N[C@@H](CO)C(=O)N[C@@H](CCCCN)C(=O)N[C@@H](CCCNC(=N)N)C(=O)N[C@@H](CCCCN)C(=O)N[C@@H](CCCCN)C(N)=O)[C@@H](C)O (HELM PEPTIDE1{[ac].V.I.K.L.S.G.R.E.L.V.R.A.Q.I.[C[C@@H](CN[*:1])C(=O)[*:2]].[C[C@@H](CN[*:1])C(=O)[*:2]].S.G.M.S.T.W.S.K.R.K.K.[am]}$$$$V2.0) | 0.0921 µM | 99% | – | – | – | – | – | – |
| CC[C@H](C)[C@H](NC(=O)C(C)CNC(=O)[C@H](NC(=O)[C@H](CCC(N)=O)NC(=O)[C@H](C)NC(=O)[C@H](CCCNC(=N)N)NC(=O)[C@@H](NC(=O)[C@H](CCCCN)NC(=O)[C@H](CCC(=O)O)NC(=O)[C@H](CCCNC(=N)N)NC(=O)CNC(=O)[C@H](CCC(=O)O)NC(=O)[C@H](CC(C)C)NC(C)=O)C(C)C)[C@@H](C)CC)C(=O)N[C@@H](CCC(=O)O)C(=O)NCC(=O)N[C@@H](CCSC)C(=O)N[C@@H](CO)C(=O)N[C@@H](CCCCN)C(=O)N[C@@H](Cc1c[nH]c2ccccc12)C(=O)N[C@@H](CO)C(=O)N[C@@H](CCCCN)C(=O)N[C@@H](CCCNC(=N)N)C(=O)N[C@@H](CCCCN)C(=O)N[C@@H](CCCCN)C(N)=O (stereo partly drawn) | 0.043 µM | 91% | – | – | – | – | – | – |
| CCCC[C@H](OC(=O)CNC(=O)[C@H](CCC(=O)O)NC(=O)[C@@H](C)CNC(=O)[C@@H](C)CNC(=O)[C@@H](NC(=O)[C@H](CCCCCNC(C)=O)NC(=O)[C@@H](C)CNC(=O)[C@@H](C)CNC(=O)[C@H](CCCCN)NC(=O)[C@H](C)NC(=O)[C@H](CCCNC(=N)N)NC(=O)[C@@H](NC(=O)[C@H](CCCCN)NC(=O)[C@H](CCC(=O)O)NC(=O)[C@H](CCCNC(=N)N)NC(=O)CNC(=O)[C@H](CCC(=O)O)NC(=O)[C@H](CC(C)C)NC(C)=O)C(C)C)[C@@H](C)CC)C(=O)N[C@@H](CO)C(=O)N[C@H](C(=O)N[C@@H](Cc1c[nH]c2ccccc12)C(=O)N[C@@H](CO)C(=O)NC[C@H](C)C(=O)N[C@@H](CCCNC(=N)N)C(=O)N[C@@H](CCCCN)C(=O)N[C@@H](CCCCN)C(N)=O)[C@@H](C)O (Ac-LEGREKVRAK[β2hAla(2S)][β2hAla(2S)][hLys](Ac)I[β2hAla(2S)][β2hAla(2S)]EG[X4]STWS[β2hAla(2S)]RKK-NH2) | 0.045 µM | 95% | – | – | – | – | – | – |

From ChEMBL document CHEMBL4732190, “Identification of Potent and Long-Acting Single-Chain Peptide Mimetics of Human Relaxin-2 for Cardiovascular Diseases” (J Med Chem, 2021)
